Measurements as given in patent US20130274258A1, “CARBAZOLE AND CARBOLINE DERIVATIVES, AND PREPARATION AND THERAPEUTIC APPLICATIONS THEREOF” (PHILIP MORRIS PRODUCTS S.A., priority 2010, published 2013).
Like-named read-outs stand apart in the source and are kept apart here. One block for each compound: values may come before it.

How the values were obtained:
colon carcinoma HCT116 = assay: Xenograft model in nude mice, colon carcinoma HCT116; format: in vivo, human; conditions: reference compound
Procedure: (§1) The compounds of the invention were evaluated in human tumor xenograft mouse models. Nude mice were subcutaneously implanted with tumor cells (melanoma A2058, colon carcinoma HCT116, fibrosarcoma HT1080 and acute myelocytic leukemia MV114) and when the tumor reached a volume of about 100-150 mm^3, treatment was initiated. Tumor growth was followed over time until tumor volume reached 1000-1500 mm^3 or up to 60 days. An example of how tumor developed over time when the animals were administered or not with E3 three times once a week (qwk×3) is presented in FIG. 7. […]

caspase 3 and 7 = assay: Apoptosis induction in Jurkat cells, caspase 3 and 7 assay; format: cell-based; conditions: for IC50: Homo sapiens, Jurkat cells, caspase 3/7 assay
Procedure: Compounds were assessed for their ability to induce apoptosis of Jurkat cells at 2 and 10 micromolar after 4 and 22 hours.
In order to firmly establish that the compounds of the invention cause cytotoxicity through apoptosis, IC50 of five compounds of the invention, doxorubicin and staurosporin were determined in the caspase assays; results are presented in Table 2. Importantly, the IC50 determined in the Alamar Blue and in the caspase assays were largely overlapping.

Jurkat cells = assay: Jurkat cell viability, resazurin (Alamar Blue) assay; format: cell-based; conditions: for IC50: Homo sapiens
Procedure: The compounds were tested for pharmacological activity. In each of the tests, each compound was tested at […] in duplicates. […] The percentage of response relative to the DMSO control was then calculated for the mean value of the duplicates of each test. The values of the three tests were finally averaged and the standard deviations calculated.
Jurkat cells (10'000 cells/well) were incubated in the presence of various concentrations of compounds, doxorubicin or staurosporine. Twenty-two hours later, cells were incubated with resazurin (20 μg/ml) for 4 hours and fluorescence was measured at 590 nm.

melanoma A2058 = assay: Xenograft model in nude mice, melanoma A2058; format: in vivo, human; conditions: reference compound
Procedure: as §1

[1] = system: acute myelocytic leukemia MV114; assay: Xenograft model in nude mice, acute myelocytic leukemia MV114; format: in vivo, human; conditions: reference compound
Procedure: as §1

[2] = Pharmacokinetics after intravenous injection, plasma concentration; format: in vivo; conditions: mice, intravenous, after four hours
Procedure: The pharmacokinetics of E3 and E35 were investigated. Mice intravenously injected with 15 mg/kg of E3 were bled after 0, 1, 5, 10, 20, 30, 60, 120 and 480 minutes. […] For E35, mice intravenously injected with 30 mg/kg of […] were bled after 0, 1, 5, 10, 20, 30, 60, 120 and 480 minutes. […] Concentration then decreased steadily over the 8 hours of the study. During the first four hours after injection, circulating concentrations of E3 and E35 were found largely similar.

[3] = Solubilization in intravenous formulation; format: physicochemical; conditions: 5% Cremophor and 5% ethanol in water
Source text: This formulation was then used for the subsequent animal studies (maximal tolerated dose, pharmacokinetics and efficacy in cancer models).

purified porcine tubulin = purified porcine tubulin (Sus scrofa, UniProt P02550+P02554); assay: Inhibition of 3H-labeled colchicine binding to purified tubulin, scintillation proximity assay; conditions: graded doses
Procedure: A series of compounds according to the invention and C14 vincristine and colchicine were tested for their capacity to inhibit ^3H-labeled colchicine binding to purified tubulin. Briefly, a limiting amount of tritium-labeled colchicine and graded doses of test compounds were added to purified porcine tubulin. After an incubation period, radioactivity associated with tubulin was determined using a scintillation proximity assay. […] By showing that these compounds interact with the colchicine binding site, it differentiates them from the tubulin inhibitors of the Vinca alkaloid- and taxane-types. The results also indicate that the compounds of the invention can be used in combination with the Vinca alkaloid- and taxane-types of tubulin inhibitors since they bind to a different aspect of tubulin, and likely affect tubulin polymerization via a different mechanism. The results also indicate that the compounds of the invention can be used even in patients who are refractory or non-responsive to other tubulin inhibitors, such as the tubulin inhibitors of the Vinca alkaloid- and taxane-types.

fibrosarcoma HT1080 = assay: Xenograft model in nude mice, fibrosarcoma HT1080; format: in vivo, human; conditions: reference compound
Procedure: as §1

[4] = Jurkat cells, 22 h then resazurin 4 h, three experiments in duplicates, read-out: IC50
[5] = Jurkat, control compounds of the tests, read-out: IC50 of control agents included in each test

Sequence of purified porcine tubulin (P02554 whole entry): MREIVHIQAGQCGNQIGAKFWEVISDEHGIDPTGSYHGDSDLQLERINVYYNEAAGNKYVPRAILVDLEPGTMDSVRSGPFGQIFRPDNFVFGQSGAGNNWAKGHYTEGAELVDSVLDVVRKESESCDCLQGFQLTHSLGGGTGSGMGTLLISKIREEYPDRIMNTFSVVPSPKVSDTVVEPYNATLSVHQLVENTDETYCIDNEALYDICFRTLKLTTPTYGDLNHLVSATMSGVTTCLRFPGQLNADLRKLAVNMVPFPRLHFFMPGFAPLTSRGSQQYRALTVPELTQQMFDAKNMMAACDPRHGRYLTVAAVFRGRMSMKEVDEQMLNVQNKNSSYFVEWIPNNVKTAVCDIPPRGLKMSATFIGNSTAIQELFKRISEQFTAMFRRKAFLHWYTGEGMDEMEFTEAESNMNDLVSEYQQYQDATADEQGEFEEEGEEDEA
Sequence of purified porcine tubulin (P02550 whole entry): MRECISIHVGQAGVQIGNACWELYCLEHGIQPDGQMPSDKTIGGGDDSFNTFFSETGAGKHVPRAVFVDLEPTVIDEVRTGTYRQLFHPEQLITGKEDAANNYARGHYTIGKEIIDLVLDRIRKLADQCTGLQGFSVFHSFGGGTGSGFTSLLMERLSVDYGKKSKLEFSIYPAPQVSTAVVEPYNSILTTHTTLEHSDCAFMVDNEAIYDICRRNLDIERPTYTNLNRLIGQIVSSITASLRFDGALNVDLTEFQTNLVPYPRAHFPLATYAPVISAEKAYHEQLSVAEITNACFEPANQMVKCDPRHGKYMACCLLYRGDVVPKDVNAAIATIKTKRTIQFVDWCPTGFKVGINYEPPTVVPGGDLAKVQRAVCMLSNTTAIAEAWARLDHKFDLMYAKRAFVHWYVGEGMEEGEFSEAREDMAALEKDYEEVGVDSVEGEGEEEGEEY

Structure (SMILES): CCc1c2c(nc3ccc(OC(=O)N4CCC(N5CCCCC5)CC4)cc13)-c1cc3c(c(=O)n1C2)COC(=O)[C@]3(O)CC [Irinotecan, reference compound]
Control with reference compound and days to study endpoint (colon carcinoma HCT116): not reached by day 58 days

IC50 (caspase 3 and 7): 0.128 µM
IC50 (Jurkat cells; [4]): 64 nM
Structure (SMILES): Cc1nccc2c1[nH]c1ccc(-c3ccc4c(c3)CCO4)cc12 [Example E29, 6-(2,3-dihydrobenzofuran-5-yl)-1-methyl-9H-pyrido[3,4-b]indole]

IC50 (caspase 3 and 7): 0.108 µM
IC50 (Jurkat cells; [4]): 104 nM
Structure (SMILES): Cc1nccc2c1[nH]c1ccc(-c3cccc(Cl)c3)cc12 [Example E2, 6-(3-chlorophenyl)-1-methyl-9H-pyrido[3,4-b]indole]

Structure (SMILES): CC[C@]1(O)C[C@@H]2CN(CCc3c([nH]c4ccccc34)[C@@](C(=O)OC)(c3cc4c(cc3OC)N(C)[C@H]3[C@@](O)(C(=O)OC)[C@H](OC(C)=O)[C@]5(CC)C=CCN6CC[C@]43[C@@H]65)C2)C1 [Vinblastine, reference compound]
Control with reference compound and days to study endpoint (melanoma A2058): Vinblastine, 45 days
Control with reference compound and days to study endpoint [1]: not reached by day 58 days

IC50 (Jurkat cells; [4]): 413 nM
Structure (SMILES): Cc1nccc2c1[nH]c1ccc(-c3ccccc3)cc12 [Example E1, 6-phenyl-1-methyl-9H-pyrido[3,4-b]indole]
caspase 3 and 7 activity compared to solvent control (%) (caspase 3 and 7; 2 μM after 4 h): −8.5%
caspase 3 and 7 activity compared to solvent control (%) (caspase 3 and 7; 2 μM after 22 h): 618.5%
caspase 3 and 7 activity compared to solvent control (%) (caspase 3 and 7; 10 μM after 4 h): −10.0%
caspase 3 and 7 activity compared to solvent control (%) (caspase 3 and 7; 10 μM after 22 h): 535.9%

IC50 (Jurkat cells; [4]): 1260 nM
Structure (SMILES): Cc1nccc2c1[nH]c1ccc(-c3cccc(C(F)(F)F)c3)cc12 [Example E6, 6-(3-(trifluoromethyl)phenyl)-1-methyl-9H-pyrido[3,4-b]indole]
caspase 3 and 7 activity compared to solvent control (%) (caspase 3 and 7; 2 μM after 4 h): 9.2%
caspase 3 and 7 activity compared to solvent control (%) (caspase 3 and 7; 2 μM after 22 h): 482.6%
caspase 3 and 7 activity compared to solvent control (%) (caspase 3 and 7; 10 μM after 4 h): 11.2%
caspase 3 and 7 activity compared to solvent control (%) (caspase 3 and 7; 10 μM after 22 h): 585.1%

Structure (SMILES): CCc1nccc2c1[nH]c1ccc(-c3cccc(C(N)=O)c3)cc12 [Example E35, 6-(3-aminocarbonylphenyl)-1-ethyl-9H-pyrido[3,4-b]indole]
circulating concentration compared with E3 [2]: substantially lower circulating concentration than E3
suitability of the formulation [3]: adequate
inhibition of 3H-labeled colchicine binding to tubulin (purified porcine tubulin): inhibited binding of colchicine
IC50 (Jurkat cells; Jurkat): 4 nM

Structure (SMILES): CC(=O)O[C@@]12CO[C@@H]1C[C@H](O)[C@@]1(C)C(=O)[C@H](O)C3=C(C)[C@@H](OC(=O)[C@H](O)[C@@H](NC(=O)OC(C)(C)C)c4ccccc4)C[C@@](O)([C@@H](OC(=O)c4ccccc4)[C@H]21)C3(C)C [Docetaxel, reference compound]
Control with reference compound and days to study endpoint (fibrosarcoma HT1080): not reached by day 58 days

Structure (SMILES): CCc1nccc2c1[nH]c1ccc(-c3cccc(NS(C)(=O)=O)c3)cc12 [Example E44, N-(3-(1-ethyl-9H-pyrido[3,4-b]indol-6-yl)phenyl)methanesulfonamide]
suitability of the formulation [3]: adequate
inhibition of 3H-labeled colchicine binding to tubulin (purified porcine tubulin): inhibited binding of colchicine
IC50 (Jurkat cells; Jurkat): 90 nM

IC50 (Jurkat cells; [4]): 775 nM
Structure (SMILES): CCOc1ccc(F)c(-c2ccc3[nH]c4c(C)nccc4c3c2)c1 [Example E7, 6-(5-ethoxy-2-fluorophenyl)-1-methyl-9H-pyrido[3,4-b]indole]
caspase 3 and 7 activity compared to solvent control (%) (caspase 3 and 7; 2 μM after 4 h): −7.6%
caspase 3 and 7 activity compared to solvent control (%) (caspase 3 and 7; 2 μM after 22 h): 616.1%
caspase 3 and 7 activity compared to solvent control (%) (caspase 3 and 7; 10 μM after 4 h): −10.2%
caspase 3 and 7 activity compared to solvent control (%) (caspase 3 and 7; 10 μM after 22 h): 548.1%

IC50 (Jurkat cells; [4]): 602 nM
Structure (SMILES): Cc1nccc2c1[nH]c1ccc(-c3cccnc3)cc12 [Example E25, 6-(pyridine-3-yl)-1-methyl-9H-pyrido[3,4-b]indole]
caspase 3 and 7 activity compared to solvent control (%) (caspase 3 and 7; 2 μM after 4 h): −0.6%
caspase 3 and 7 activity compared to solvent control (%) (caspase 3 and 7; 2 μM after 22 h): 624.4%
caspase 3 and 7 activity compared to solvent control (%) (caspase 3 and 7; 10 μM after 4 h): 18.7%
caspase 3 and 7 activity compared to solvent control (%) (caspase 3 and 7; 10 μM after 22 h): 405.7%

IC50 (caspase 3 and 7): 0.061 µM
IC50 (Jurkat cells; [4]): 47 nM
Structure (SMILES): Cc1nccc2c1[nH]c1ccc(-c3cccc(C#N)c3)cc12 [Example E21, 6-(3-cyanophenyl)-1-methyl-9H-pyrido[3,4-b]indole]

IC50 (caspase 3 and 7): 0.215 µM
IC50 (Jurkat cells; [4]): 137 nM
Structure (SMILES): COc1cccc(-c2ccc3[nH]c4c(C)nccc4c3c2)c1 [Example E9, 6-(3-methoxyphenyl)-1-methyl-9H-pyrido[3,4-b]indole]

IC50 (Jurkat cells; [4]): 3660 nM
Structure (SMILES): Cc1nccc2c1[nH]c1ccc(-c3ccc(CO)o3)cc12 [Example E32, 6-(5-hydroxymethylfuran-2-yl)-1-methyl-9H-pyrido[3,4-b]indole]

Structure (SMILES): CN[C@@H]1C[C@H]2O[C@@](C)([C@@H]1OC)n1c3ccccc3c3c4c(c5c6ccccc6n2c5c31)C(=O)NC4 [staurosporine, reference compound]
IC50 (Jurkat cells; [5]): 31 nM

IC50 (Jurkat cells; [4]): 25 nM
Structure (SMILES): Cc1c2[nH]c3ccc(-c4cc(Cl)cc(Cl)c4)cc3c2cc[n+]1[O-] [Example E60, 6-(3,5-dichlorophenyl)-1-methyl-9H-pyrido[3,4-b]indole 2-oxide]

IC50 (Jurkat cells; [4]): 913 nM
Structure (SMILES): Cc1nccc2c1[nH]c1ccc(-c3cccc(-n4cccn4)c3)cc12 [Example E59, 6-(3-(1H-pyrazol-1-yl)phenyl)-1-methyl-9H-pyrido[3,4-b]indole]

IC50 (Jurkat cells; [4]): 52 nM
Structure (SMILES): Cc1nccc2c1[nH]c1ccc(-c3cccc(CNS(C)(=O)=O)c3)cc12 [Example E45]

IC50 (Jurkat cells; [4]): 2290 nM
Structure (SMILES): Cc1nccc2c1[nH]c1ccc(-c3ccc(C=O)o3)cc12 [Example E31, 6-(5-formylfuran-2-yl)-1-methyl-9H-pyrido[3,4-b]indole]

IC50 (Jurkat cells; [4]): 2880 nM
Structure (SMILES): CCc1nccc2c1[nH]c1ccc(-c3cccc(COC)c3)cc12 [Example E40, 6-(3-(methoxymethyl)phenyl)-1-ethyl 9H-pyrido[3,4-b]indole]

Structure (SMILES): CC(=O)OCc1cc(COC(C)=O)cc(-c2ccc3[nH]c4c(C)nccc4c3c2)c1 [Example E16, 6-(3,5-bis(acetoxymethyl)phenyl)-1-methyl-9H-pyrido[3,4-b]indole]
IC50 (Jurkat cells; [4]): 52 nM

inhibition of 3H-labeled colchicine binding to tubulin (purified porcine tubulin): did not inhibit colchicine binding
IC50 (Jurkat cells; [4]): > 10000 nM
Structure (SMILES): COc1cc(-c2ccc3[nH]c4c(C)nccc4c3c2)cc(OC)c1OC [Example C14]

IC50 (Jurkat cells; [5]): 85 nM
Structure (SMILES): COc1cccc2c1C(=O)c1c(O)c3c(c(O)c1C2=O)C[C@@](O)(C(=O)CO)C[C@@H]3O[C@H]1C[C@H](N)[C@H](O)[C@H](C)O1 [doxorubicin, reference compound]

IC50 (μM) (Jurkat cells; Jurkat cells, 22 h then resazurin 4 h, three experiments in duplicates): not active
Structure (SMILES): Cc1nccc2c1[nH]c1ccc(-c3cccc(C(=O)O)c3)cc12 [Example C6, 6-(3-carboxyphenyl)-1-methyl-9H-pyrido[3,4-b]indole]

IC50 (Jurkat cells; [4]): 130 nM
Structure (SMILES): Cc1ccc(-c2ccc3[nH]c4c(C)nccc4c3c2)o1 [Example E28, 6-(5-methylfuran-2-yl)-1-methyl-9H-pyrido[3,4-b]indole]
